The results in this text go back to ChEMBL document CHEMBL1201862, “PubChem BioAssay data set” (2004).

Test systems include NCI-H460; OVCAR-4; K562; SK-MEL-2; SK-OV-3; MCF7; HOP-92; UO-31; A549; HCC 2998; SW-620; EKVX; HT-29; A498; Malme-3M; SNB-75; MDA-MB-231; M14; SR.
Assay in all cases: NCI-60 cell line screen, 48 h

SMILES strings stand for the structures.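 48-hour exposure; five concentrations; linearly interpolated endpoints. Here, GI50 denotes the concentration required for 50% inhibition of growth.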 Active and inactive are the calls of the source. Rule as the data show it: active = GI50 up to about 1.1 µM and inactive = higher.

Consider `CCN(CC)CCNC(=O)C1COc2ccc(-c3cc(=O)c4ccccc4o3)cc2O1` (stereo not given), for which the GI50 was 16.8 µM (inactive) in the experiment on NCI-H460; 18.5 µM (inactive) in the experiment on OVCAR-4; 16 µM (inactive) in the experiment on K562; 19.8 µM (inactive) with SK-MEL-2; 23 µM (inactive) with SK-OV-3; 19.4 µM (inactive) in the experiment on MCF7. The GI50 in the experiment on HOP-92 is 19.1 µM (inactive); in the experiment with UO-31, 16 µM (inactive); in the experiment on A549 it was 23.6 µM (inactive); in the experiment on HCC 2998, 19.2 µM (inactive); with SW-620, 18.5 µM (inactive); in the experiment with EKVX it was 26.7 µM (inactive). Also, the GI50 is 14.9 µM (inactive) in the experiment with HT-29, 16 µM (inactive) with A498, 16 µM (inactive) in the experiment on Malme-3M and 17.2 µM (inactive) in the experiment on SNB-75.

`O=C(CC(O)(C(F)(F)F)C(F)(F)F)C(CCCl)C(O)(C(F)(F)F)C(F)(F)F` (stereo not given): the GI50 in the experiment with NCI-H460 is 15 µM (inactive); in the experiment on MDA-MB-231, 65 µM (inactive); in the experiment with OVCAR-4, 49.2 µM (inactive); in the experiment with K562, 39.7 µM (inactive); in the experiment on M14 it was 40.6 µM (inactive); in the experiment on SK-MEL-2, 36.2 µM (inactive). Besides, the GI50 is 45.6 µM (inactive) in the experiment with SK-OV-3; 85.1 µM (inactive) in the experiment on MCF7; 28.2 µM (inactive) in the experiment with UO-31; 35.6 µM (inactive) with A549; 43.8 µM (inactive) with HCC 2998; 51.6 µM (inactive) in the experiment on SW-620. Further, the GI50 in the experiment with EKVX was 34.7 µM (inactive); in the experiment with SR, 27.3 µM (inactive); in the experiment on HT-29, 23.8 µM (inactive); in the experiment with A498, 25.4 µM (inactive); in the experiment on Malme-3M, 24.7 µM (inactive); in the experiment on SNB-75 it was 24.9 µM (inactive).

For `CCc1cccc(C(C)C)c1NC(=O)CC1Sc2ccccc2NC1=O` (stereo not given), the GI50 with NCI-H460 is 71.4 µM (inactive); with OVCAR-4, 76.2 µM (inactive); with K562, 44.6 µM (inactive); in the experiment with M14 it was 38.6 µM (inactive); in the experiment on SK-MEL-2, 39.5 µM (inactive); with SK-OV-3, > 100 µM (inactive). For the same compound, the GI50 in the experiment on HOP-92 was 39.5 µM (inactive); in the experiment with UO-31, 43.3 µM (inactive); in the experiment on A549 it was 49.2 µM (inactive); with HCC 2998, > 100 µM (inactive); in the experiment with SW-620, 13 µM (inactive); in the experiment with EKVX it was 80.5 µM (inactive). Besides, the GI50 was 30.1 µM (inactive) with SR; 55.6 µM (inactive) in the experiment on HT-29; 46.8 µM (inactive) with A498; 83.6 µM (inactive) with Malme-3M; 60.7 µM (inactive) in the experiment on SNB-75.

Turning to `N#CC(/C(=N/NC(=O)C(=O)NN)C(=O)NC12CC3CC(CC(C3)C1)C2)c1ccccc1` (stereo not given), the GI50 in the experiment with NCI-H460, in the experiment on OVCAR-4, with K562, with M14, in the experiment on SK-MEL-2 and in the experiment with SK-OV-3 was > 100 µM (inactive) in each case. The GI50 with HOP-92, in the experiment on UO-31, in the experiment with A549, in the experiment on HCC 2998, in the experiment on SW-620 and in the experiment on EKVX was > 100 µM (inactive) each time. For the same compound, the GI50 in the experiment with SR, in the experiment on HT-29, in the experiment on A498, with Malme-3M and with SNB-75 was > 100 µM (inactive) in each case.

Regarding `COc1ccc(/C=c2\sc3nnc(CCC(=O)Nc4cccc(C(F)(F)F)c4)n3c2=O)cc1`, the GI50 in the experiment with NCI-H460 was > 100 µM (inactive); in the experiment with OVCAR-4, > 100 µM (inactive); in the experiment on K562, > 100 µM (inactive); with M14, > 100 µM (inactive); in the experiment with SK-MEL-2, 72.9 µM (inactive); in the experiment with SK-OV-3, > 100 µM (inactive). For the same compound, the GI50 with HOP-92, with UO-31, in the experiment on A549, with HCC 2998, in the experiment with SW-620 and in the experiment on EKVX was > 100 µM (inactive) each time. For the same compound, the GI50 in the experiment with SR was 42.6 µM (inactive); with HT-29, > 100 µM (inactive); in the experiment with A498, > 100 µM (inactive); in the experiment with Malme-3M, > 100 µM (inactive); in the experiment on SNB-75, > 75.7 µM (inactive).

As to `CCNc1ncnc2nn[nH]c12`, the GI50 with MDA-MB-231, in the experiment on OVCAR-4, in the experiment on K562, in the experiment with M14, in the experiment with SK-MEL-2 and in the experiment on SK-OV-3 was > 100 µM (inactive) each time. The GI50 in the experiment with MCF7, in the experiment with HOP-92, in the experiment on UO-31, in the experiment on A549, in the experiment with HCC 2998 and in the experiment on SW-620 was > 100 µM (inactive) throughout. For the same compound, the GI50 in the experiment on EKVX, with HT-29, in the experiment on A498, in the experiment on Malme-3M and with SNB-75 was > 100 µM (inactive) in each case.

Consider `O=S(=O)(O)c1cc(/N=[N+](\[O-])c2ccc(/N=N/c3ccccc3)cc2S(=O)(=O)O)ccc1/C=C/c1ccc(/N=[N+](\[O-])c2ccc(/N=N/c3ccccc3)cc2S(=O)(=O)O)cc1S(=O)(=O)O`, for which the GI50 with NCI-H460 was > 100 µM (inactive); in the experiment on OVCAR-4 it was > 87.3 µM (inactive); in the experiment with K562, > 100 µM (inactive); with SK-MEL-2, > 100 µM (inactive); in the experiment on SK-OV-3 it was > 100 µM (inactive); in the experiment with MCF7 it was > 100 µM (inactive). Further, the GI50 with HOP-92, in the experiment on UO-31, in the experiment on A549, with HCC 2998, in the experiment with SW-620 and in the experiment with EKVX was > 100 µM (inactive) in each case. Besides, the GI50 with HT-29 is > 100 µM (inactive); with A498 it was > 100 µM (inactive); in the experiment with Malme-3M it was > 100 µM (inactive); in the experiment with SNB-75, 72.8 µM (inactive).

Regarding `CC[C@@H](C(=O)[C@@H](C)[C@@H](O)[C@H](C)CCc1ccc(C)c(O)c1C(=O)O)[C@H]1O[C@](CC)([C@H]2CC[C@](O)(CC)[C@H](C)O2)C[C@@H]1C` [LASALOCID A SODIUM], the GI50 in the experiment on NCI-H460 was 2.04 µM (inactive); with OVCAR-4, 3.23 µM (inactive); in the experiment on K562, 0.664 µM (active); in the experiment on M14, 3.31 µM (inactive); in the experiment on SK-MEL-2 it was 1.85 µM (inactive); in the experiment on SK-OV-3, 2.92 µM (inactive). Further, the GI50 with HOP-92 was 1.69 µM (inactive); with UO-31, 3.17 µM (inactive); with A549 it was 2.06 µM (inactive); in the experiment with HCC 2998, 1.05 µM (active); with SW-620, 2.33 µM (inactive); in the experiment with EKVX, 2.16 µM (inactive). Besides, the GI50 in the experiment with SR is 1.12 µM (inactive); with HT-29 it was 1.06 µM (active); with A498 it was 0.573 µM (active); in the experiment on Malme-3M it was 1.05 µM (active); in the experiment with SNB-75, 0.92 µM (active).
